Consider two molecules from patent US9989520B2, “Human hepatoma cell line HLCZ01 and uses thereof” (HUNAN PROVINCIAL TUMOR HOSPITAL, priority 2013, dated 2018).

Test [1] deals with hepatitis C virus. Kind of test: α-interferon treatment of HCV-infected HLCZ01 cells (amount of HCV, quantitative PCR). Type of test: cell-based, hepatitis C virus (in human hepatoma cell line HLCZ01). To be noted: with respect to doses of α-interferon and time (hours), FIG. 10. Here is the method: FIG. 10 is a column diagram for the human hepatoma cell line HLCZ01 according to the above first embodiment of the present invention, illustrating the amount of HCV with respect to the amount of interferon used and time (hours).
1. The human hepatoma cell line HLCZ01 cells and Huh7.5 cells are placed on the 6-well cell culture plate (200,000/well). After 24 hours, the medium is replaced with medium containing 2% FBS, and the cells are infected by HCV. The medium is changed after 24 hours. Huh7.5 cells and human hepatoma cell line HLCZ01 are cultured for 1 day, 2 days, 3 days and 6 days respectively, and TRIZOL is used to extract total RNA from the above mentioned two cell lines at different time points after virus infection. One microgram of the total RNA is reversely transcribed into cDNA, and 1 μL of cDNA are used as templates for processing quantitative PCR.
According to the human hepatoma cell line HLCZ01 of the present invention, the human hepatoma cell line HLCZ01 can also be used for the preparation, screening or evaluating anti-HCV drugs. […] Therefore, the human hepatoma cell line HLCZ01 of the present invention can be used for the preparation, screening or evaluating the anti-HCV drugs.

Test [2] deals with hepatitis B virus. Kind of test: α-interferon treatment of HBV-infected HLCZ01 cells (amount of HBV, quantitative PCR). Type of test: cell-based, hepatitis B virus (in human hepatoma cell line HLCZ01). As to conditions: based on amount of α-interferon added and processing time (days), FIG. 9. Here is the method: FIG. 9 is a column diagram for the human hepatoma cell line HLCZ01 according to the above second embodiment of the present invention, illustrating the amount of HBV with respect to the amount of interferon used and time (days).
The human hepatoma cell line HLCZ01 is placed on the 60 mm culture plate. After 24 hours, the medium (DMEM medium) is replaced to the mixture of a supernatant of HepaG2.2.15 cells with a complete medium (1:1 by volume ratio), and then the human hepatoma cell line HLCZ01 is continuously cultured. The cells were passaged every 3 to 5 days. DNA from HBV-infected human hepatoma cell line HLCZ01 was isolated every three days. One microgram of DNA from HBV-infected HLCZ01 cells is used as template for processing quantitative PCR and HBV DNA level in the human hepatoma cell line HLCZ01 is detected.
According to the human hepatoma cell line HLCZ01 of the present invention, the human hepatoma cell line HLCZ01 can also be used for the preparation, screening or evaluating the anti-HBV drugs. […] Therefore, the human hepatoma cell line HLCZ01 of the present invention can be used for the preparation, screening or evaluating the anti-HBV drugs.

The test system of test [3] is HLCZ01 cells. Kind of test: TRAIL sensitivity of HLCZ01 cells by flow cytometry. As to conditions: HLCZ01 cells treated with TRAIL, FIG. 11. The class given is cell-based, human. In general terms: In flow cytometry, cells or beads pass a laser one at a time.

α-interferon: the “amount of virus in HCV-infected HLCZ01 cells” value in test [1] was “able to reduce the amount of virus in HCV-infected HLCZ01 cells”. In addition, the “amount of HBV in the human hepatoma cell line HLCZ01” value in test [2] was “able to reduce the amount of HBV in the human hepatoma cell line HLCZ01”.

B1: TRAIL (protein, UniProt P50591 1-281, looked up)
Tumor necrosis factor ligand …: MAMMEVQGGPSLGQTCVLIVIFTVLLQSLCVAVTYVYFTNELKQMQDKYSKSGIACFLKEDDSYWDPNDEESMNSPCWQVKWQLRQLVRKMILRTSEETISTVQEKQQNISPLVRERGPQRVAAHITGTRGRSNTLSSPNSKNEKALGRKINSWESSRSGHSFLSNLHLRNGELVIHEKGFYYIYSQTYFRFQEEIKENTKNDKQMVQYIYKYTSYPDPILLMKSARNSCWSKDAEYGLYSIYQGGIFELKENDRIFVSVTNEHLIDMDHEASFFGAFLVG
notes: TRAIL at the current phase II of clinical trail
With B1, the “death of the HLCZ01 cells” value in test [3] is listed as “able to induce the death of the HLCZ01 cells”.
